Laboratory results taken from patent publication US12350272B2, “Pyridopyrimidinone derivatives for use as AXL inhibitors” (OSCOTEC INC., priority 2018, dated 2025).
pIC50: −log10 of the molar value. Structures can show the parent of a compound that is named as a salt. Where two headings read alike, the source gives them in different places.

Legend:
[1] = molecular target: Truncated human Axl (Homo sapiens, UniProt P30530); assay: Kinase inhibition assay (inhibition of enzymatic Axl kinase activity); format: biochemical
Method: Compounds of Formula (I) as obtained above were assayed to measure their capacity to inhibit Axl kinase. Axl belongs to the recently identified TYRO-3, Axl, MERTK (TAM) receptor tyrosine kinase (RTK) family. […] Upon GAS6 binding, Axl homodimerizes and subsequently induces several downstream signaling pathways involved in cell proliferation, migration, invasion, anti-apoptosis, angiogenesis, metastasis, and therapeutic resistance. Upregulation of Axl has been reported in a wide variety of cancer cell lines as well as in cancer specimens from patients with breast cancer, acute leukemia, colorectal cancer, lung cancer, melanoma, ovarian cancer, or prostate cancer, among others.
Compounds of Formula (I) as obtained above were initially diluted to […] in 100% DMSO (CALBIOCHEM™) for storage and made into kinase buffer solution to create a compound concentration ranging from 1 uM and 10 uM. Serial dilutions of the compounds were dispensed into a 96-well plate (GREINER BIOSCIENCES™) at 6 μL each. Truncated human Axl (CARNA BIOSCIENCES™) were diluted in kinase buffer and added to the compound solutions and pre-incubated for 30 minutes at room temperature. […] The reaction mixture was incubated for 1 hour. Following the incubation, the stop solution made with EDTA, water, and Lance detection buffer ([…]™) were added (12 μL each) to stop phosphorylation.

[2] = molecular target: JAK2 (Homo sapiens (Human), UniProt O60674); assay: Biochemical inhibition of JAK2; conditions: Table 2, range of IC50 value
[3] = Table 2, range of IC50 value, read-out: Axl

Truncated human Axl, sequence (P30530 26-894 limits assumed): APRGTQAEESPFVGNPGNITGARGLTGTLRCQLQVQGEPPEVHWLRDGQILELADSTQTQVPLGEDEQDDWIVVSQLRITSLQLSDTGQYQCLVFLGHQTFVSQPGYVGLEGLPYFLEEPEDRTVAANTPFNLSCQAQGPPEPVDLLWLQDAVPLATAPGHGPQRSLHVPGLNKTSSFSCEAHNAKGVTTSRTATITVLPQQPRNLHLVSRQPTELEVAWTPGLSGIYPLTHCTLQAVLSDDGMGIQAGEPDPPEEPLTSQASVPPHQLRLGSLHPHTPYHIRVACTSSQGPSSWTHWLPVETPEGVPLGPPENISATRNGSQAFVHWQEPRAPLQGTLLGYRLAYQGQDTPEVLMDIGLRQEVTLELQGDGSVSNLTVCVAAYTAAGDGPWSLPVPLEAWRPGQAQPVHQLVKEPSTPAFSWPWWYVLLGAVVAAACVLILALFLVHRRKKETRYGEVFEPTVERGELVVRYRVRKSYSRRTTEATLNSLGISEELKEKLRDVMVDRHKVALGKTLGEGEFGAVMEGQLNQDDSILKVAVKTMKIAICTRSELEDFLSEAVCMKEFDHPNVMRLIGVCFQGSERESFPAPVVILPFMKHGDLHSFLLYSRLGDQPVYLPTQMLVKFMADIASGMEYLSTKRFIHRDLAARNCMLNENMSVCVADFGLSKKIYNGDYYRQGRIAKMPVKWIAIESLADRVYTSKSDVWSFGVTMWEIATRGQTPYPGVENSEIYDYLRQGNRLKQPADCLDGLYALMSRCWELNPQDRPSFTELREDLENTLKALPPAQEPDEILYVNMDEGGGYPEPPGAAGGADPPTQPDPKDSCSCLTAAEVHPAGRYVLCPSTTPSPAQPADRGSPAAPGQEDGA
JAK2, sequence (O60674 whole entry, species assumed): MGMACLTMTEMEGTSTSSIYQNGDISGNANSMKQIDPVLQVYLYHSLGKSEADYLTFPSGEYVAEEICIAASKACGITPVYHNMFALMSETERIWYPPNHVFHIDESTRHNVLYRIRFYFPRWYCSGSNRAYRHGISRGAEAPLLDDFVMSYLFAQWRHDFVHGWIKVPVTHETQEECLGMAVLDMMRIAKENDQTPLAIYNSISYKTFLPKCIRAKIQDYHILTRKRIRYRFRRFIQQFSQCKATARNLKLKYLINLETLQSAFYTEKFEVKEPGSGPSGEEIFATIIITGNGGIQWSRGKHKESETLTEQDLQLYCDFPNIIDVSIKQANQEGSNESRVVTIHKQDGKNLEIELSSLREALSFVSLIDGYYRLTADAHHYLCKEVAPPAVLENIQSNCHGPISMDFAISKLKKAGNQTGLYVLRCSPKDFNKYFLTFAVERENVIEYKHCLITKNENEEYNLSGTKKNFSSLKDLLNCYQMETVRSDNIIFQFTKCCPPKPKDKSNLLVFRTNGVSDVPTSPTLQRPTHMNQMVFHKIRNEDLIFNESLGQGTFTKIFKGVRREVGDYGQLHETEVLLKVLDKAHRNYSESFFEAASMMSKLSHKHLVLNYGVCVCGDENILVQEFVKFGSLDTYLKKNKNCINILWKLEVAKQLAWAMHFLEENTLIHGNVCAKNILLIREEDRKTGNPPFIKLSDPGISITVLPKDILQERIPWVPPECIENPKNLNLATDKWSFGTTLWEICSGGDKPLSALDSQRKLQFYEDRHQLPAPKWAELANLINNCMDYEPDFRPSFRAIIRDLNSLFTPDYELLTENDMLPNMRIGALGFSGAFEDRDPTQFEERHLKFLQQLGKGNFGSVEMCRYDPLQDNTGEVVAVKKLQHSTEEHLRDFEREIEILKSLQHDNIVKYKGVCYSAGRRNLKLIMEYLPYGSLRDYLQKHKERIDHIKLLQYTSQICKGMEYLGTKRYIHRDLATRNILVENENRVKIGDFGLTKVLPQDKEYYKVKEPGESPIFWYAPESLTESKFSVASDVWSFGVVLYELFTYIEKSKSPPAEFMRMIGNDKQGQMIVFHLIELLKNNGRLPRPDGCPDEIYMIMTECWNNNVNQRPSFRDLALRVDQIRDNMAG

Compound	pIC50 ([1]; Table 1, read-out: Axl (IC50))	pIC50 [2]	pIC50 [1, 3]
CN1CCC(Nc2nc(Nc3ccc(OCc4ccccc4)cc3)c3c(=O)[nH]cc(Br)c3n2)CC1 [Compound 221, 4-((4-(benzyloxy)phenyl)amino)-8-bromo-2-((1-methylpiperidin-4-yl)amino)pyrido[4,3-d]pyrimidin-5(6H)-one]	6.00 to 7.00		
CN1CCC(Nc2nc(Nc3ccc(Oc4ccccc4)cc3)c3c(=O)[nH]cc(Br)c3n2)CC1 [Compound 222, 8-bromo-2-((1-methylpiperidin-4-yl)amino)-4-((4-phenoxyphenyl)amino)pyrido[4,3-d]pyrimidin-5(6H)-one]		6.00 to 7.00	
CN1CCC(Nc2nc(Nc3ccc(OC4CCCC4)cc3)c3c(=O)[nH]cc(Br)c3n2)CC1 [Compound 223, 8-bromo-4-((4-(cyclopentyloxy)phenyl)amino)-2-((1-methylpiperidin-4-yl)amino)pyrido[4,3-d]pyrimidin-5(6H)-one]	6.00 to 7.00	6.00 to 7.00	6.00 to 7.00
CN1CCC(Nc2nc(Nc3ccc(OCC4CCCCC4)cc3)c3c(=O)[nH]cc(Br)c3n2)CC1 [Compound 224, 8-bromo-4-((4-(cyclohexylmethoxy)phenyl)amino)-2-((1-methylpiperidin-4-yl)amino)pyrido[4,3-d]pyrimidin-5(6H)-one]	6.00 to 7.00		
CN1CCC(Nc2nc(Nc3ccc(OCC4CCCC4)cc3)c3c(=O)[nH]cc(Br)c3n2)CC1 [Compound 227, 8-bromo-4-((4-(cyclopentylmethoxy)phenyl)amino)-2-((1-methylpiperidin-4-yl)amino)pyrido[4,3-d]pyrimidin-5(6H)-one]	6.00 to 7.00		
CN1CCC(Nc2nc(Nc3ccc(OC4CCCCC4)cc3)c3c(=O)[nH]cc(Cl)c3n2)CC1 [Compound 229, 8-chloro-4-((4-(cyclohexyloxy)phenyl)amino)-2-((1-methylpiperidin-4-yl)amino)pyrido[4,3-d]pyrimidin-5(6H)-one]	6.00 to 7.00		
CC(C)c1ccc(Oc2ccc(Nc3nc(NC4CCN(C)CC4)nc4c(Br)c[nH]c(=O)c34)cc2)cc1 [Compound 230, 8-bromo-4-((4-(4-isopropylphenoxy)phenyl)amino)-2-((1-methylpiperidin-4-yl)amino)pyrido[4,3-d]pyrimidin-5(6H)-one]	7.00 to 7.96		
Cc1ccc(Oc2ccc(Nc3nc(NC4CCN(C)CC4)nc4c(Br)c[nH]c(=O)c34)cc2)cc1 [Compound 231, 8-bromo-2-((1-methylpiperidin-4-yl)amino)-4-((4-(p-tolyloxy)phenyl)amino)pyrido[4,3-d]pyrimidin-5(6H)-one hydrochloride]	7.00 to 7.96		
CN1CCC(Nc2nc(Nc3ccc(OCc4ccccc4)cc3)c3c(=O)[nH]cc(Br)c3n2)CC1 [Compound 234, 4-((4-(benzyloxy)phenyl)amino)-8-bromo-2-((1-methylpiperidin-4-yl)amino)pyrido[4,3-d]pyrimidin-5(6H)-one hydrochloride]	6.00 to 7.00		
CC(C)c1ccc(Oc2ccc(Nc3nc(NC4CCN(C)CC4)nc4c(Br)c[nH]c(=O)c34)cc2)cc1 [Compound 236, 8-bromo-4-((4-(4-isopropylphenoxy)phenyl)amino)-2-((1-methylpiperidin-4-yl)amino)pyrido[4,3-d]pyrimidin-5(6H)-one hydrochloride]	7.00 to 7.96		
Cc1ccccc1Oc1ccc(Nc2nc(NC3CCN(C)CC3)nc3c(Br)c[nH]c(=O)c23)cc1 [Compound 239, 8-bromo-2-((1-methylpiperidin-4-yl)amino)-4-((4-(o-tolyloxy)phenyl)amino)pyrido[4,3-d]pyrimidin-5(6H)-one hydrochloride]	7.00 to 7.96		
CN1CCC(Nc2nc(Nc3ccc(Oc4ccc(Cl)cc4)cc3)c3c(=O)[nH]cc(Br)c3n2)CC1 [Compound 242, 8-bromo-4-((4-(4-chlorophenoxy)phenyl)amino)-2-((1-methylpiperidin-4-yl)amino)pyrido[4,3-d]pyrimidin-5(6H)-one hydrochloride]	7.00 to 7.96		
Cc1cc(Nc2nc(NC3CCN(C)CC3)nc3c(Br)c[nH]c(=O)c23)ccc1Oc1cccc(F)c1 [Compound 244, 8-bromo-4-((4-(3-fluorophenoxy)-3-methylphenyl)amino)-2-((1-methylpiperidin-4-yl)amino)pyrido[4,3-d]pyrimidin-5(6H)-one hydrochloride]	7.00 to 7.96		
CC(C)N1CCC(Nc2nc(Nc3ccc(Oc4ccccc4)cc3)c3c(=O)[nH]cc(Br)c3n2)CC1 [Compound 248, 8-bromo-2-(1-isopropylpiperidin-4-ylamino)-4-(4-phenoxyphenylamino)pyrido[4,3-d]pyrimidin-5(6H)-one]	7.00 to 7.96		
CCN1CCC(Nc2nc(Nc3ccc(Oc4ccccc4)cc3)c3c(=O)[nH]cc(Br)c3n2)CC1 [Compound 249, 8-bromo-2-(1-ethylpiperidin-4-ylamino)-4-(4-phenoxyphenylamino)pyrido[4,3-d]pyrimidin-5(6H)-one]	7.00 to 7.96		
O=c1[nH]cc(Br)c2nc(NC3CCN(CC(F)(F)F)CC3)nc(Nc3ccc(Oc4ccccc4)cc3)c12 [Compound 250, 8-bromo-4-(4-phenoxyphenylamino)-2-(1-(2,2,2-trifluoroethyl)piperidin-4-ylamino)pyrido[4,3-d]pyrimidin-5(6H)-one]	6.00 to 7.00		

Continued, values first:

pIC50 ([1]; Table 1, read-out: Axl (IC50))	pIC50 [2]	pIC50 [1, 3]	Compound
7.00 to 7.96	5.00 to 6.00	7.00 to 7.96	Cc1ccc(Oc2ccc(Nc3nc(NC4CCN(C)CC4)nc4c(Br)c[nH]c(=O)c34)cc2)cc1 [Compound 225, 8-bromo-2-((1-methylpiperidin-4-yl)amino)-4-((4-(p-tolyloxy)phenyl)amino)pyrido[4,3-d]pyrimidin-5(6H)-one]
6.00 to 7.00	6.00 to 7.00	6.00 to 7.00	CN1CCC(Nc2nc(Nc3ccc(OC4CCCCC4)cc3)c3c(=O)[nH]cc(Br)c3n2)CC1 [Compound 228, 8-bromo-4-((4-(cyclohexyloxy)phenyl)amino)-2-((1-methylpiperidin-4-yl)amino)pyrido[4,3-d]pyrimidin-5(6H)-one]
7.00 to 7.96			CN1CCC(Nc2nc(Nc3ccc(Oc4ccc(F)cc4)cc3)c3c(=O)[nH]cc(Br)c3n2)CC1 [Compound 232, 8-bromo-4-((4-(4-fluorophenoxy)phenyl)amino)-2-((1-methylpiperidin-4-yl)amino)pyrido[4,3-d]pyrimidin-5(6H)-one hydrochloride]
7.00 to 7.96			CN1CCC(Nc2nc(Nc3ccc(Oc4cc(F)cc(F)c4)cc3)c3c(=O)[nH]cc(Br)c3n2)CC1 [Compound 243, 8-bromo-4-((4-(3,5-difluorophenoxy)phenyl)amino)-2-((1-methylpiperidin-4-yl)amino)pyrido[4,3-d]pyrimidin-5(6H)-one hydrochloride]
7.00 to 7.96			CN1CCC(Nc2nc(Nc3ccc(Oc4ccccc4)c(F)c3)c3c(=O)[nH]cc(Br)c3n2)CC1 [Compound 245, 8-bromo-4-((3-fluoro-4-phenoxyphenyl)amino)-2-((1-methylpiperidin-4-yl)amino)pyrido[4,3-d]pyrimidin-5(6H)-one hydrochloride]
7.00 to 7.96			Cc1cc(Nc2nc(NC3CCN(C)CC3)nc3c(Br)c[nH]c(=O)c23)ccc1Oc1ccccc1 [Compound 246, 8-bromo-4-((3-methyl-4-phenoxyphenyl)amino)-2-((1-methylpiperidin-4-yl)amino)pyrido[4,3-d]pyrimidin-5(6H)-one hydrochloride]
7.00 to 7.96			CN1CCC(Nc2nc(Nc3ccc(Oc4cccc(F)c4)c(F)c3)c3c(=O)[nH]cc(Br)c3n2)CC1 [Compound 247, 8-bromo-4-((3-fluoro-4-(3-fluorophenoxy)phenyl)amino)-2-((1-methylpiperidin-4-yl)amino)pyrido[4,3-d]pyrimidin-5(6H)-one hydrochloride]
